Experimental data from ChEMBL document CHEMBL1201862, “PubChem BioAssay data set” (2004).
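All cell lines were grown in 96-well plates and treated with compound for 48 hours. The concentration for 50% growth inhibition is given as GI50.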 Active and inactive are the calls of the source. No stated cut-off is given here; in the data, active = GI50 up to about 1.1 µM and inactive = higher.

What was measured:
Experiment in all cases: DTP human tumour cell line panel, 48 h
786-0 = system: 786-0
A498 = system: A498
CCRF-CEM = system: CCRF-CEM
COLO 205 = system: COLO 205
HCT-116 = system: HCT-116
HOP-62 = system: HOP-62
Hs-578T = system: Hs-578T
K562 = system: K562
LOX IMVI = system: LOX IMVI
MDA-MB-231 = system: MDA-MB-231
MDA-N = system: MDA-N
NCI-H522 = system: NCI-H522
NCI/ADR-RES = system: NCI/ADR-RES
OVCAR-5 = system: OVCAR-5
SF-268 = system: SF-268
SF-295 = system: SF-295
SK-MEL-2 = system: SK-MEL-2
SK-OV-3 = system: SK-OV-3
U-251 = system: U-251
RXF 393 = system: RXF 393

Measured: GI50

COc1ccc(OC2OC(CO)C(O)C(O)C2O)cc1 (stereo unspecified)
inactive: 786-0 > 100 µM | A498 > 100 µM | CCRF-CEM > 100 µM | COLO 205 > 100 µM | HCT-116 > 100 µM | HOP-62 > 100 µM | Hs-578T > 100 µM | K562 > 100 µM | LOX IMVI > 100 µM | MDA-MB-231 > 100 µM | MDA-N > 100 µM | NCI-H522 > 100 µM | NCI/ADR-RES > 100 µM | OVCAR-5 > 100 µM | SF-268 > 100 µM | SF-295 > 100 µM | SK-MEL-2 > 100 µM | SK-OV-3 > 100 µM | U-251 > 100 µM

C=C1CCCC(C)(C)[C@H]1C/C=C1\CCOC1=O
inactive: 786-0 14.7 µM | A498 17.2 µM | CCRF-CEM 21.6 µM | COLO 205 19.3 µM | HCT-116 12.6 µM | HOP-62 17.6 µM | Hs-578T 16.9 µM | K562 11.9 µM | LOX IMVI 11.5 µM | MDA-MB-231 17.7 µM | MDA-N 17.9 µM | NCI-H522 18 µM | NCI/ADR-RES 10.5 µM | SF-268 9.04 µM | SF-295 17.1 µM | SK-MEL-2 63.7 µM | SK-OV-3 10.5 µM | U-251 16.8 µM

Cc1c(C(=O)O)c2cc3ccccc3cc2c(=O)n1C
inactive: 786-0 > 10 µM | Hs-578T > 10 µM | LOX IMVI > 10 µM | MDA-MB-231 > 10 µM | MDA-N > 10 µM | NCI-H522 > 10 µM | NCI/ADR-RES > 10 µM | OVCAR-5 > 10 µM | RXF 393 > 10 µM | SF-268 > 10 µM | SF-295 > 10 µM | SK-MEL-2 > 10 µM | SK-OV-3 > 10 µM | U-251 > 10 µM

O=S(=O)(c1ccccc1)c1ccc(/N=N/O)nc1
inactive: 786-0 > 100 µM | A498 > 100 µM | CCRF-CEM 59.4 µM | COLO 205 > 100 µM | HCT-116 > 100 µM | HOP-62 > 100 µM | Hs-578T > 100 µM | K562 > 100 µM | MDA-MB-231 > 100 µM | MDA-N > 100 µM | NCI-H522 > 100 µM | NCI/ADR-RES > 100 µM | OVCAR-5 > 100 µM | SF-268 > 100 µM | SF-295 > 100 µM | SK-MEL-2 > 100 µM | SK-OV-3 > 100 µM | U-251 > 100 µM

CC1CCOc2ccc(cc2)/C=N\c2ccc(cc2)-c2ccc(cc2)/N=C\c2ccc(cc2)OCC1
inactive: 786-0 > 100 µM | CCRF-CEM > 100 µM | COLO 205 > 100 µM | HCT-116 > 100 µM | Hs-578T > 100 µM | K562 > 100 µM | LOX IMVI > 100 µM | MDA-MB-231 > 100 µM | MDA-N > 100 µM | NCI-H522 > 100 µM | NCI/ADR-RES > 100 µM | OVCAR-5 > 100 µM | SF-268 > 100 µM | SF-295 > 100 µM | SK-MEL-2 > 100 µM | SK-OV-3 > 100 µM | U-251 > 100 µM

Cc1ccc(-n2nncc2[Si](C)(C)C)s1
inactive: 786-0 > 100 µM | A498 > 100 µM | CCRF-CEM 22.6 µM | COLO 205 > 100 µM | HCT-116 > 100 µM | Hs-578T > 100 µM | K562 > 100 µM | LOX IMVI > 100 µM | MDA-MB-231 > 100 µM | MDA-N > 100 µM | NCI-H522 > 100 µM | NCI/ADR-RES > 100 µM | OVCAR-5 > 100 µM | SF-268 > 100 µM | SF-295 > 100 µM | SK-MEL-2 > 100 µM | SK-OV-3 > 100 µM | U-251 > 100 µM

CC12CC1C(c1cccc([N+](=O)[O-])c1)(c1cccc([N+](=O)[O-])c1)N=N2 (stereo unspecified)
inactive: 786-0 20.7 µM | A498 4.28 µM | CCRF-CEM 3.36 µM | COLO 205 21.6 µM | HCT-116 15.8 µM | HOP-62 > 100 µM | Hs-578T 21.9 µM | K562 29.9 µM | LOX IMVI 13.2 µM | MDA-MB-231 16.5 µM | MDA-N 23.2 µM | NCI-H522 6.7 µM | NCI/ADR-RES 22.9 µM | OVCAR-5 53.3 µM | SF-268 27.7 µM | SF-295 57 µM | SK-MEL-2 44.7 µM | SK-OV-3 > 100 µM | U-251 18.7 µM

CCCCc1ccc(NC(=N)N)cc1
inactive: 786-0 17.7 µM | A498 35.6 µM | CCRF-CEM 16.9 µM | COLO 205 19 µM | HCT-116 24.9 µM | Hs-578T 37.1 µM | K562 12.6 µM | LOX IMVI 40 µM | MDA-MB-231 28.9 µM | MDA-N 27.7 µM | NCI-H522 28.1 µM | NCI/ADR-RES 29.9 µM | OVCAR-5 50.6 µM | SF-268 40.2 µM | SF-295 23.9 µM | SK-MEL-2 47.6 µM | SK-OV-3 41.5 µM | U-251 85.3 µM

O=C(CNc1nccs1)Nn1cnc2ccc(S(=O)(=O)Nc3nccs3)cc2c1=O
inactive: 786-0 > 100 µM | CCRF-CEM > 100 µM | COLO 205 > 100 µM | HCT-116 > 100 µM | HOP-62 > 100 µM | Hs-578T > 100 µM | K562 > 100 µM | LOX IMVI > 100 µM | MDA-MB-231 > 100 µM | MDA-N > 100 µM | NCI-H522 > 100 µM | NCI/ADR-RES > 100 µM | OVCAR-5 > 100 µM | SF-268 > 100 µM | SF-295 > 100 µM | SK-MEL-2 > 100 µM | SK-OV-3 > 100 µM | U-251 > 100 µM

CC1CC(=O)Nc2ccc(/N=N/N(C)C)cc2N1C=O (stereo unspecified)
inactive: 786-0 > 100 µM | CCRF-CEM > 100 µM | COLO 205 > 100 µM | HCT-116 > 100 µM | HOP-62 > 100 µM | Hs-578T > 100 µM | K562 > 100 µM | MDA-MB-231 > 100 µM | MDA-N > 100 µM | NCI-H522 > 100 µM | NCI/ADR-RES > 100 µM | OVCAR-5 > 100 µM | RXF 393 > 100 µM | SF-268 > 100 µM | SF-295 > 100 µM | SK-MEL-2 > 100 µM | SK-OV-3 > 100 µM | U-251 > 100 µM

CCOC(=O)/C=C(/C(=O)OCC)n1cnc2c(=O)[nH]c(NC(C)=O)nc21
inactive: 786-0 > 100 µM | A498 > 100 µM | CCRF-CEM > 100 µM | COLO 205 > 100 µM | HCT-116 > 100 µM | HOP-62 > 100 µM | Hs-578T > 100 µM | K562 > 100 µM | LOX IMVI > 100 µM | MDA-MB-231 > 100 µM | MDA-N > 100 µM | NCI-H522 > 100 µM | NCI/ADR-RES > 100 µM | OVCAR-5 > 100 µM | SF-268 > 100 µM | SF-295 > 100 µM | SK-MEL-2 > 100 µM | SK-OV-3 > 100 µM | U-251 > 100 µM
